For 28 molecules, Kd results are on record in US10323036B2 (Nimbus Lakshmi, Inc., priority 2016, dated 2019).

For the experiment, the target named is human TYK2 (JH2domain-pseudokinase) (Homo sapiens (Human), UniProt P29597). As to the kind of experiment: TYK2 JH2 Domain Binding Assay (KINOMEscan). As to conditions: Table 4, JH2 binding assay; read-out: JH2 Kd.

pKd: −log10 of the molar value.

Sequence of human TYK2 (JH2domain-pseudokinase) (P29597 556-888): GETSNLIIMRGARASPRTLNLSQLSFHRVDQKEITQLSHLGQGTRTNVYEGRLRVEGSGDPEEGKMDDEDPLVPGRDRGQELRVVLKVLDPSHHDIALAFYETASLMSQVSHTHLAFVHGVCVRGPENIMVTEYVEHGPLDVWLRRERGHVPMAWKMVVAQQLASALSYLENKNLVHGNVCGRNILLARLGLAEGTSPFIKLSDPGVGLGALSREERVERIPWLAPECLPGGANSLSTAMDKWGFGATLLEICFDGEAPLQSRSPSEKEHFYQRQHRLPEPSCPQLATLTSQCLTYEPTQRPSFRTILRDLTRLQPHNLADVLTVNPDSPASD

Turning to `Cc1ccc(Nc2cc(Nc3ccc(Cl)cc3S(C)(=O)=O)c3c(=O)n(C)[nH]c3n2)nn1` [Compound I-157, 4-((4-chloro-2-(methylsulfonyl)phenyl)amino)-2-methyl-6-((6-methylpyridazin-3-yl)amino)-1,2-dihydro-3H-pyrazolo[3,4-b]pyridin-3-one], the pKd was 9.00 to 9.30. The figure for `COc1c(Cl)cccc1Nc1cc(Nc2cnc(C(C)C)c(C#N)n2)nc2[nH]n(C)c(=O)c12` [Compound I-158, 6-((4-((3-chloro-2-methoxyphenyl)amino)-2-methyl-3-oxo-2,3-dihydro-1H-pyrazolo[3,4-b]pyridin-6-yl)amino)-3-isopropylpyrazine-2-carbonitrile] is below 8.00; for `Cn1[nH]c2nc(NC(=O)C3CC3)cc(Nc3ccc(C4CCC4)cc3S(C)(=O)=O)c2c1=O` [Compound I-182, N-(4-((4-cyclobutyl-2-(methylsulfonyl)phenyl)amino)-2-methyl-3-oxo-2,3-dihydro-1H-pyrazolo[3,4-b]pyridin-6-yl)cyclopropanecarboxamide] it is 9.30 to 10.00; for `COc1c(F)cccc1Nc1cc(Nc2cnc(C(C)(C)OC)c(C#N)n2)nc2[nH]n(C)c(=O)c12` [Compound I-190, 6-((4-((3-fluoro-2-methoxyphenyl)amino)-2-methyl-3-oxo-2,3-dihydro-1H-pyrazolo[3,4-b]pyridin-6-yl)amino)-3-(2-methoxypropan-2-yl)pyrazine-2-carbonitrile] it is 9.00 to 9.30. `COc1c(F)cccc1Nc1cc(Nc2ccc(C(F)F)c(C#N)n2)nc2[nH]n(C)c(=O)c12` [Compound I-191, 3-(difluoromethyl)-6-((4-((3-fluoro-2-methoxyphenyl)amino)-2-methyl-3-oxo-2,3-dihydro-1H-pyrazolo[3,4-b]pyridin-6-yl)amino)picolinonitrile]: the pKd is below 8.00.

In the case of `Cc1ccc(Nc2cc(Nc3ccc(F)cc3S(C)(=O)=O)c3c(=O)n(C)[nH]c3n2)nn1` [Compound I-198, 4-((4-fluoro-2-(methylsulfonyl)phenyl)amino)-2-methyl-6-((6-methylpyridazin-3-yl)amino)-1,2-dihydro-3H-pyrazolo[3,4-b]pyridin-3-one], the pKd was 9.30 to 10.00.

As for `Cc1cc(Nc2cc(Nc3ccc(Cl)cc3S(C)(=O)=O)c3c(=O)n(C)[nH]c3n2)nc(C)n1` [Compound I-199, 4-((4-chloro-2-(methylsulfonyl)phenyl)amino)-6-((2,6-dimethylpyrimidin-4-yl)amino)-2-methyl-1,2-dihydro-3H-pyrazolo[3,4-b]pyridin-3-one], the negative-log Kd (pKd) was 9.30 to 10.00.

Turning to `Cn1[nH]c2nc(NC(=O)C3CC3)cc(Nc3ccc(C4CC4)cc3S(C)(=O)=O)c2c1=O` [Compound I-201, N-(4-((4-cyclopropyl-2-(methylsulfonyl)phenyl)amino)-2-methyl-3-oxo-2,3-dihydro-1H-pyrazolo[3,4-b]pyridin-6-yl)cyclopropanecarboxamide], the pKd was above 10.00. The figure for `Cn1[nH]c2nc(Nc3cccc(C#N)n3)cc(Nc3ccc(Cl)cc3S(C)(=O)=O)c2c1=O` [Compound I-203, 6-((4-((4-chloro-2-(methylsulfonyl)phenyl)amino)-2-methyl-3-oxo-2,3-dihydro-1H-pyrazolo[3,4-b]pyridin-6-yl)amino)picolinonitrile] is 9.00 to 9.30; for `Cc1cc(Nc2cc(Nc3ccc(C4CC4)cc3S(C)(=O)=O)c3c(=O)n(C)[nH]c3n2)nc(C)n1` [Compound I-206, 4-((4-cyclopropyl-2-(methylsulfonyl)phenyl)amino)-6-((2,6-dimethylpyrimidin-4-yl)amino)-2-methyl-1,2-dihydro-3H-pyrazolo[3,4-b]pyridin-3-one] it is 9.00 to 9.30. In the case of `Cc1ncc(Nc2cc(Nc3ccc(Cl)cc3S(C)(=O)=O)c3c(=O)n(C)[nH]c3n2)nc1C` [Compound I-207, 4-((4-chloro-2-(methylsulfonyl)phenyl)amino)-6-((5,6-dimethylpyrazin-2-yl)amino)-2-methyl-1,2-dihydro-3H-pyrazolo[3,4-b]pyridin-3-one] it was 8.00 to 9.00. Consider `Cc1ccc(Nc2cc(Nc3ccc(Cl)cc3S(C)(=O)=O)c3c(=O)n(C)[nH]c3n2)nc1C(F)(F)F` [Compound I-208, 4-((4-chloro-2-(methylsulfonyl)phenyl)amino)-2-methyl-6-((5-methyl-6-(trifluoromethyl)pyridin-2-yl)amino)-1,2-dihydro-3H-pyrazolo[3,4-b]pyridin-3-one], for which the pKd is 9.00 to 9.30. The figure for `Cn1[nH]c2nc(Nc3cccc(C(F)(F)F)n3)cc(Nc3ccc(Cl)cc3S(C)(=O)=O)c2c1=O` [Compound I-209, 4-((4-chloro-2-(methylsulfonyl)phenyl)amino)-2-methyl-6-((6-(trifluoromethyl)-pyridin-2-yl)amino)-1,2-dihydro-3H-pyrazolo[3,4-b]pyridin-3-one] is 9.00 to 9.30; for `Cn1[nH]c2nc(NC(=O)[C@@H]3C[C@@H]3F)cc(Nc3ccc(C4CC4)cc3S(C)(=O)=O)c2c1=O` [Compound I-210] it is 9.30 to 10.00. With `Cc1ncc(Nc2cc(Nc3ccc(C4CC4)cc3S(C)(=O)=O)c3c(=O)n(C)[nH]c3n2)nc1C` [Compound I-211, 4-((4-cyclopropyl-2-(methylsulfonyl)phenyl)amino)-6-((5,6-dimethylpyrazin-2-yl)amino)-2-methyl-1,2-dihydro-3H-pyrazolo[3,4-b]pyridin-3-one], the negative logarithm of the Kd (pKd) is 9.00 to 9.30. Regarding `Cn1[nH]c2nc(Nc3cncc(C#N)n3)cc(Nc3ccc(C4CC4)cc3S(C)(=O)=O)c2c1=O` [Compound I-212, 6-((4-((4-cyclopropyl-2-(methylsulfonyl)phenyl)amino)-2-methyl-3-oxo-2,3-dihydro-1H-pyrazolo[3,4-b]pyridin-6-yl)amino)pyrazine-2-carbonitrile], the pKd was below 8.00. In the case of `Cn1[nH]c2nc(Nc3ccc(C#N)cn3)cc(Nc3ccc(C4CC4)cc3S(C)(=O)=O)c2c1=O` [Compound I-213, 6-((4-((4-cyclopropyl-2-(methylsulfonyl)phenyl)amino)-2-methyl-3-oxo-2,3-dihydro-1H-pyrazolo[3,4-b]pyridin-6-yl)amino)nicotinonitrile] it was 9.30 to 10.00; in that of `COCc1ccnc(Nc2cc(Nc3ccc(C4CC4)cc3S(C)(=O)=O)c3c(=O)n(C)[nH]c3n2)c1` [Compound I-214, 4-((4-cyclopropyl-2-(methylsulfonyl)phenyl)amino)-6-((4-(methoxymethyl)pyridin-2-yl)amino)-2-methyl-1,2-dihydro-3H-pyrazolo[3,4-b]pyridin-3-one], 9.30 to 10.00; in that of `Cn1[nH]c2nc(Nc3cccc(C(F)(F)F)n3)cc(Nc3ccc(C4CC4)cc3S(C)(=O)=O)c2c1=O` [Compound I-215, 4-((4-cyclopropyl-2-(methylsulfonyl)phenyl)amino)-2-methyl-6-((6-(trifluoromethyl)pyridin-2-yl)amino)-1,2-dihydro-3H-pyrazolo[3,4-b]pyridin-3-one], 9.30 to 10.00.

Consider `CN(c1ccccc1Nc1cc(NC(=O)[C@@H]2C[C@@H]2F)nc2[nH]n(C)c(=O)c12)S(C)(=O)=O` [Compound I-216, (1S,2S)-2-fluoro-N-(2-methyl-4-((2-(N-methylmethylsulfonamido)phenyl)amino)-3-oxo-2,3-dihydro-1H-pyrazolo[3,4-b]pyridin-6-yl)cyclopropane-1-carboxamide], for which the negative logarithm of the Kd (pKd) was 9.30 to 10.00.

As to `CCc1ccc(Nc2cc(NC(=O)C3CC3)nc3[nH]n(C)c(=O)c23)c(N(C)S(C)(=O)=O)c1` [Compound I-217, N-(4-((4-ethyl-2-(N-methylmethylsulfonamido)phenyl)amino)-2-methyl-3-oxo-2,3-dihydro-1H-pyrazolo[3,4-b]pyridin-6-yl)cyclopropanecarboxamide], the negative-log Kd (pKd) is above 10.00.

Turning to `COCc1ccc(Nc2cc(NC(=O)C3CC3)nc3[nH]n(C)c(=O)c23)c(N(C)S(C)(=O)=O)c1` [Compound I-218], the pKd was above 10.00.

Take `CN(c1cc(N2CCC2)ccc1Nc1cc(NC(=O)C2CC2)nc2[nH]n(C)c(=O)c12)S(C)(=O)=O` [Compound I-219, N-(4-((4-(azetidin-1-yl)-2-(N-methylmethylsulfonamido)phenyl)amino)-2-methyl-3-oxo-2,3-dihydro-1H-pyrazolo[3,4-b]pyridin-6-yl)cyclopropanecarboxamide]: the negative-log Kd (pKd) is 9.30 to 10.00. For the molecule `COC1CN(c2ccc(Nc3cc(NC(=O)C4CC4)nc4[nH]n(C)c(=O)c34)c(N(C)S(C)(=O)=O)c2)C1` [Compound I-220, N-(4-((4-(3-methoxyazetidin-1-yl)-2-(N-methylmethylsulfonamido)phenyl)amino)-2-methyl-3-oxo-2,3-dihydro-1H-pyrazolo[3,4-b]pyridin-6-yl)cyclopropane-carboxamide], the negative-log Kd (pKd) was 9.30 to 10.00. Consider `COc1c(Cl)cccc1Nc1cc(Nc2cc3n(n2)CCOC3)nc2[nH]n(C)c(=O)c12` [Compound I-221, 4-((3-chloro-2-methoxyphenyl)amino)-6-((6,7-dihydro-4H-pyrazolo[5,1-c][1,4]oxazin-2-yl)amino)-2-methyl-1,2-dihydro-3H-pyrazolo[3,4-b]pyridin-3-one], for which the pKd was 9.30 to 10.00. The figure for `COc1c(Cl)cccc1Nc1cc(Nc2cc3n(n2)CCCC3)nc2[nH]n(C)c(=O)c12` [Compound I-222, 4-((3-chloro-2-methoxyphenyl)amino)-2-methyl-6-((4,5,6,7-tetrahydropyrazolo[1,5-a]pyridin-2-yl)amino)-1,2-dihydro-3H-pyrazolo[3,4-b]pyridin-3-one] is 8.00 to 9.00; for `COc1cccnc1Nc1cc(NC(=O)C2CC2)nc2[nH]n(C)c(=O)c12` [Compound I-223, N-(4-((3-methoxypyridin-2-yl)amino)-2-methyl-3-oxo-2,3-dihydro-1H-pyrazolo[3,4-b]pyridin-6-yl)cyclopropanecarboxamide] it is 8.00 to 9.00. In the case of `CN(c1ccccc1Nc1cc(Nc2cnc3c(n2)CCC3)nc2[nH]n(C)c(=O)c12)S(C)(=O)=O` [Compound I-225, N-(2-((6-((6,7-dihydro-5H-cyclopenta[b]pyrazin-2-yl)amino)-2-methyl-3-oxo-2,3-dihydro-1H-pyrazolo[3,4-b]pyridin-4-yl)amino)phenyl)-N-methylmethanesulfonamide] it was above 10.00.

One may read the pKd as the negative decadic logarithm of the Kd, by convention in mol/L.
